Measurements reported in patent US8067372B2, “Modulation of angiogenesis by A-beta peptide fragments” (Alzheimer's Institute of America, Inc., priority 2005, dated 2011).
Entries after “also recorded” stand apart in the source; their conditions may differ.

How the values were obtained:
[1] = tested on: Human Umbilical Vein Endothelial Cells (HUVEC); assay: Capillary tube formation assay (HUVEC on Matrigel); assay type: cell-based; conditions: for Total length of capillary tubes (percentage of control): ANOVA main effect: 0, 1, 5 and 10 μM doses
Description: All in-vitro experiments were performed using primary Human Umbilical Vein Endothelial Cells (HUVEC) at passages 3-4, purchased from American Tissue Type Culture Collection (ATCC, VA). Cells were cultured in F12K Medium (ATCC, VA) supplemented with 10% fetal bovine serum (Invitrogen, CA), 0.1 mg/ml Heparin and 0.03 mg/ml endothelial cell growth supplement (Sigma-Aldrich, MO). At all times, cells were maintained in a sterile cell culture incubator at 37° C. and 5% CO2.
HUVEC (7.5×10^4 cells/ml) in 500 μl of medium were seeded in 24-well plates, on top of a layer of Matrigel basement membrane matrix (Invitrogen, CA) in F12K medium (ATCC, VA) containing 4% serum (Invitrogen, CA), 0.1 mg/ml Heparin and 0.03 mg/ml endothelial cell growth supplement (Sigma-Aldrich, MO). Cells were incubated with peptides (or control conditions) for 24 hours. Control wells received the same volume of vehicle (DMSO) used to dilute the peptides. Network formation experiments were performed in triplicate, and at least 2 randomly chosen fields were photographed for each well using a 4× objective. Capillary length was measured using Image Pro Plus software (Media Cybernetic, Inc., MD).

[2] = tested on: VEGF-induced angiogenesis; assay: Rat corneal micropocket assay; assay type: in vivo; conditions: 0.5, 2.5 and 5.0 μg with 200 ng VEGF; 7 days
Description: The vascular growth response was measured seven days post implantation. The lengths and widths of vessel outgrowths were measured and the angiogenic index (AI) calculated using the formula L×W=AI. Rats were perfused with colloidal carbon, eyes enucleated and fixed in 10% buffered formalin. Corneas were removed under an Olympus dissecting microscope and mounted on glass slides with Crystal Mount media.

[3] = tested at 1, 5 and 10 μM, 24 hours

| Substance | Total length of capillary tubes (percentage of control): ANOVA main effect [1] | anti-angiogenic activity in capillary network formation [1, 3] | other results |
| --- | --- | --- | --- |
| DAEFRHDSGYEVAAQALVFFAEDVGSNK (listed as Homo sapiens) [Aβ1-28 Mutant 2] | no main effect | – | – |
| DAEFRHDSGYEVGGQGLVFFAEDVGSNK (listed as Homo sapiens) [Aβ1-28 Mutant 1] | no main effect | – | – |
| GSNKGAIIGLM (listed as Homo sapiens) [Aβ25-35] | – | not active | anti-angiogenic activity in capillary network formation ([1]; 5 μM): slightly active; anti-angiogenic activity in capillary network formation ([1]; 10 μM): not at 10 μM |
| HHHQKLVFF (listed as Homo sapiens) [Fragment 1] | significant main effect | – | Total length of capillary tubes (percentage of control): post hoc effect ([1]; 1, 5 and 10 μM, P<0.005): significant effects; inhibition of VEGF-induced angiogenesis in vivo (Angiogenic Index) [2]: appears antiangiogenic in vivo |
| LMVGGVVIA (listed as Homo sapiens) [Aβ34-42] | – | pro-angiogenic activity; also recorded: did not display any anti-angiogenic activity; also recorded: promoted angiogenesis in a dose dependent manner; also recorded: not active | – |
| LVFFAEDVGSNK (listed as Homo sapiens) [Aβ17-28] | – | did not display any anti-angiogenic activity; also recorded: not active | – |
| YEVHHQK (listed as Homo sapiens) [Aβ10-16] | – | did not display any anti-angiogenic activity; also recorded: inactive | – |
| YEVHHQKLVFFAEDVGSNKGAIIGLM (listed as Homo sapiens) [Aβ10-35] | – | most active | Total length of capillary tubes (percentage of control): post hoc difference from control ([1]; 5 and 10 μM doses, P<0.005, 24 hours, n≧8): significant differences |
| heparin [reference compound] | – | – | reversal of inhibition of capillary tube formation induced by Aβ1-42 ([1]; heparin 500 μg/ml and 1 mg/ml added with Aβ1-42, P<0.001 vs Aβ alone): effectively reverse; also recorded: effectively reversed inhibition; inhibition of angiogenesis (capillary tube formation) by heparin alone ([1]; heparin alone, 0.5 or 1 mg/ml): slight inhibition |
